Results on 1 molecule are retold here after PMC11440465, “Detection of Sulfonamide Antibiotics Using an Elastic Hydrogel Microparticles-Based Optical Biosensor” (ACS Applied Materials & Interfaces, 2024).

For the assay, the target named is T1, Dihydropteroate synthase (DHPS) (Streptococcus pneumoniae, UniProt P05382).
T1 construct: gene sulA; dimer; immobilized on PEMA or POMA coated glass
Kind of assay: competitive hydrogel microparticle (SCP) binding assay, RICM contact area. Particulars: DHPS immobilized on PEMA-coated glass; 0.1 M MOPS pH 6.0, 5 mM MgCl2, 600 uM pyrophosphate, room temperature; competes with SMX derivative on microparticles.

A value given as a limit tells only on which side of the number the result lay.

T1 sequence (P05382 whole entry): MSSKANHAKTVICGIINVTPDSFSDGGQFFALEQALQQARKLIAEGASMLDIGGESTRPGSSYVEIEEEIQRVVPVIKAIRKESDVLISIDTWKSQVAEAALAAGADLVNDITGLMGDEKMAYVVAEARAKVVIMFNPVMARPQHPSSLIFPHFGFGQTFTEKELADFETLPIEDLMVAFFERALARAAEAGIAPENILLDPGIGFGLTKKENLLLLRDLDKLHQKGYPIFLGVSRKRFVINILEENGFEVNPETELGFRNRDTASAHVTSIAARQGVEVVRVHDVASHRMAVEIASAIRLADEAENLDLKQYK

As for `Cc1cc(NS(=O)(=O)c2ccc(N)cc2)no1` [SMX, sulfamethoxazole], the “% decrease of SCP contact area diameter at 1 mM” value is reported as greater than 50%.
